Measurements reported in US8697840B2, “Peptide inhibition of lung epithelial apoptosis and pulmonary fibrosis” (Board of Regents, The University of Texas System, priority 2008, dated 2014).
“Also recorded” adds a separate entry of the source.

Assays:
Format in all cases: cell-based, human
[1] = tested on: primary small airway epithelial (SAE) cells; assay: SAE cell proliferation, DNA synthesis by [3H]-thymidine uptake; conditions: uPA between 5 and 20 nM; bleomycin 40 μg/ml as positive control
Method: FIGS. 2A-2B is a set of graphs showing dose-dependent induction of primary small airway epithelial (SAE) cell apoptosis and proliferation by uPA. FIG. 2A, SAE cells were treated for 48 h with 0-20 nM uPA at 37° C. Apoptotic cells were analyzed by flow cytometry using anti-annexin-V antibody and propidium iodide (PI). Bleo (40 μg/ml) was used as positive control (90). FIG. 2B, The cells were next treated with uPA as described in FIG. 1A and DNA synthesis was determined by [^3H]-thymidine uptake as described (5).

p53 = assay: Western blot of bleo-treated Beas2B cells: p53; conditions: 40 μg/ml bleo, 28 h
Method: (§1) FIG. 4 depicts a set of Western blots showing the show the effect of bleo on uPA, uPAR, PAI-1 and p53 expression in LEC in vitro.
(§2) Beas2B cells were treated for 28 h with PBS or 40 μg/ml of bleo in the presence or absence of uPA or its ATF (20 nM), anti-β1-integrin monoclonal antibody (B1), (which activates β1-integrin by clustering), mouse IgG (mIgG), uPA+B1, uPA+mIgG, PP-1 (10 nM), or scrambled control peptide CP-1 (10 nM) at 37° C. In the case of uPA and PAI-1, the full length uPA was substituted with ATF, because uPA-mediated autoinduction or induction of PAI-1 occurs via the interaction of the ATF with uPAR (3-4). […] The membrane proteins were subjected to Western blotting using anti-uPAR antibody.

PAI-1 = assay: Western blot of bleo-treated Beas2B cells: PAI-1; conditions: 40 μg/ml bleo, 28 h
Method: as §1, §2

uPA = assay: Western blot of bleo-treated Beas2B cells: uPA; conditions: 40 μg/ml bleo, 28 h
Method: as §1, §2

uPAR = assay: Western blot of bleo-treated Beas2B cells: uPAR; conditions: 40 μg/ml bleo, 28 h
Method: as §1, §2

Beas2B cells = assay: Bleo-induced apoptosis of Beas2B cells, flow cytometry (anti-Annexin-V antibody and propidium iodide); conditions: 28 h, 40 μg/ml bleo, uPA 20 nM, anti-β1-integrin antibody 1 μg/ml, PP-1 10 nM
Method: FIG. 6 is a graph showing apoptosis (% apoptotic cells) after treatment of cells with a β1-integrin activator (anti-β1-integrin antibody), uPA, a combination of the antibody and uPA, or PP-1, along with appropriate controls. Beas2B cells were treated for 28 h with PBS or 40 μg/ml of Bleo in the presence or absence of uPA (20 nM) or PBS as control, with anti-β1-integrin antibody (1 μg/ml, B1), or mouse IgG (mIgG) as control, a combination of the antibody (or control antibody with uPA, and with PP-1 peptide (10 nM) or the CP-1 control peptide (10 nM) as described above at 37° C. Cells were harvested after trypsinization and LEC apoptosis was determined by flow cytometry after exposing the cells to anti-Annexin-V antibody and propidium iodide (as described for FIG. 2A).
Expression of p53 and PAI-1 shown in Example I were correlated with LEC apoptosis induced by bleo (FIG. 6). […] Beas2B cells were treated for 28 h with PBS or 40 μg/ml of bleo (Bleo) with uPA (20 nM), and/or anti-β1-integrin antibody (1 μg/ml, B1), control mouse IgG (mIgG) PP-1 peptide (10 nM) or CP-1 control peptide (10 nM) as described above at 37° C. Cells were trypsinized and LEC apoptosis was determined by flow cytometry after exposing the cells to anti-Annexin-V antibody and propidium iodide (as described for FIG. 2A).

Substance | cell proliferation of SAE cells [1] | p53 expression (p53) | PAI-1 expression (PAI-1) | uPA expression (uPA) | uPAR expression (uPAR) | protection of LECs from bleo-induced apoptosis (Beas2B cells)
Bleomycin | inhibited cell proliferation | induced | induced | suppressing | suppressing | 
DGIWKASFTTFTVTKYWFYR [PP-1, residues 82-101 of human Cav-1, the caveolin-1 scaffolding domain] |  |  |  |  |  | protected LECs from bleo-induced apoptosis; also recorded: more potent in protecting LECs than was uPA or anti-β1-integrin antibody
